Data from patent US20140187538A1, “LORCASERIN HYDROCHLORIDE” (DR. REDDY'S LABORATORIES LTD., priority 2012, published 2014).

Assay: physical stability of the amorphous solid form (tendency to crystallize over time)
Format: physicochemical
Settings: solid state; amorphous drug substance alone vs amorphous solid dispersion; crystallization over a period of time

C[C@H]1CNCCc2ccc(Cl)cc21.Cl [amorphous lorcaserin hydrochloride]
physical stability: limited physical stability
